Assay results from US20020155422A1, “Methods for analyzing dynamic changes in cellular informatics and uses therefor” (priority 2000, published 2002).

System: HL-60 cells
Assay: Gene expression profiling (Resgen microarray filters) of HL-60 cells stimulated to differentiate into neutrophils, time course
Assay type: cell-based, human
Conditions: for Normalized expression level of gene W95428 / Normalized expression level of gene W96205 / Normalized expression level of gene W96450 / Normalized expression level of gene W96463: HL-60 cells, retinoic acid induced switch, normalized to T = 0 level
From the text: Given the value of understanding the genetic basis of the switch between different hematopoietic stem cell lineages, a well-characterized human pluripotent precursor cell line—the HL 60 promyeloid leukemia cell line—provides a useful model system. HL 60 precursors cells can be induced to switch to granulocytes, monocytes, or macrophages based on alterations in experimental conditions. […] Established molecular methods (e.g., immunocytochemistry, FACS cell sorting, SDS-PAGE, Western blots, Northern blots, or other biochemical or molecular biological techniques) can be used to identify cells that have switched, between different phenotypes. These methods can be used to identify experimental conditions necessary to optimally acquire the baseline data for analysis according to methods of the invention, including information on the dose-response for the transition between different cell states and the time required for a stimulated cell to undergo the transition and reach a new steady state. Additional insight into the molecules involved in cell regulation may be gained by carrying out analysis of cells under various experimental conditions that induce forward and reverse transitions between the same two states by adding or removing a common stimulus as well as by analysis of convergent transition processes that involve switching to a common cell state using different stimuli and divergent transition process that involve switching from one state to two different attractor states using different perturbations. […] The latter would lead to a perturbation of the attractor state to various degrees with subsequent relaxation back to the same attractor along distinct trajectories.
Cell state transitions that may be studied and characterized in the HL60 model system include: A) induction of a transition from HL60 precursor to a granulocyteby treatment with DMSO; B) induction of a reverse transition from granulocyte to HL60 by removing DMSO; C) induction of a transition from HL60 precursor to granulocyte using all-trans-retinoid acid; D) induction of a reverse transition from granulocytes to HL60 precursors by removing all-trans-retinoid acid; E) induction of a transition from HL60 precursors to a monocyte(s) by addition of NaButyrate; and F) induction of a transition from HL60 precursors to a macrophage(s) by addition of TPA. This approach was used to analyze two convergent processes of HL-60 cell transition from precursor to neutrophil states after stimulation with DMSO and retinoic acid (transitions A and C, respectively). In this experiment, only a relatively low number of genes (<300) were analyzed over 7 time points.
HL-60 cells (1.5×10^6 cells/ml) were stimulated in parallel cultures to differentiate into neutrophils along two different but convergent paths by treatment with DMSO (S1 path) or retinoic acid (S2 path). At each time point, RNA was harvested from both cultures using RNeasy extraction kit (Qiagen) and subjected to gene expression profiling using Resgen microarray filters from Research Genetics/Invitrogen (the gene filter contains 5000 human cDNAs that were pre-spotted on a 5×7 cm nylon membrane and then hybridized with radioactively labeled cDNA made from total cellular RNA). […] Expression levels for each gene were normalized to the 0 time point level for that gene (untreated reference). Genes with expression levels below a 4 fold change relative to the 0 reference were excluded from the analysis. In this analysis, an inter-trajectory distance representation was used to compare different trajectories with the cell state space and to identify common paths in cell state transition processes. For each time point, a state vector of length 281 genes was defined for each of the two processes S1(t) and S2(t). […]

C[S+](C)[O-] [DMSO]
inter-trajectory distance DT(t) (squared Euclidean distance between state vectors S1(t), S2(t)) (HL-60 cells 1.5×10^6 cells/ml, DMSO (S1 path) versus retinoic acid (S2 path), 281 genes, 7 time points, FIG. 7): converge on the same differentiation state

CC1=C(/C=C/C(C)=C/C=C/C(C)=C/C(=O)O)C(C)(C)CCC1 [retinoic acid]
Normalized expression level of gene W95428 (2 hours): 1.049 | Normalized expression level of gene W96205 (2 hours): 0.9014 | Normalized expression level of gene W96450 (2 hours): 0.8141 | Normalized expression level of gene W96463 (2 hours): 0.9136 | Normalized expression level of gene W95428 (Day 2): 1.003 | Normalized expression level of gene W96205 (Day 2): 0.931 | Normalized expression level of gene W96450 (Day 2): 0.8573 | Normalized expression level of gene W96463 (Day 2): 0.9058 | Normalized expression level of gene W95428 (Day 3): 0.9532 | Normalized expression level of gene W96205 (Day 3): 0.9937 | Normalized expression level of gene W96450 (Day 3): 0.6712 | Normalized expression level of gene W96463 (Day 3): 0.8109 | Normalized expression level of gene W95428 (Day 4): 0.9982 | Normalized expression level of gene W96205 (Day 4): 0.9089 | Normalized expression level of gene W96450 (Day 4): 0.8387 | Normalized expression level of gene W96463 (Day 4): 0.8458 | Normalized expression level of gene W95428 (Day 5): 0.9605 | Normalized expression level of gene W96205 (Day 5): 0.9604 | Normalized expression level of gene W96450 (Day 5): 1.17 | Normalized expression level of gene W96463 (Day 5): 0.841 | Normalized expression level of gene W95428 (Day 7): 0.954 | Normalized expression level of gene W96205 (Day 7): 0.9732 | Normalized expression level of gene W96450 (Day 7): 1.087 | Normalized expression level of gene W96463 (Day 7): 0.8014
